Measured values: patent US12029738B2, “Antiproliferative compounds and methods of use thereof” (Celgene Corporation, priority 2017, dated 2024)

Experiments:
DF15 = assay: Flow cytometry proliferation/apoptosis assay (120 h); format: cell-based, human; conditions: for IC50: Homo sapiens, read-out: Antiproliferative Activity (Flow Cytometry) IC50; for induced apoptosis AUC (area under the dose response curve): scale 0-10000
Description: (§1) Methods. […] Twenty MM cell lines (Table 7 and 8) (including the plasma cell leukemia (PCL) cell lines L363, JJN-3, ARH-77, and SKMM-2) were treated in duplicate with escalating concentrations of Compound 2 or pomalidomide, ranging from 0.015 to 100 nM. Using 5 mM stocks, compounds were pre-spotted into the appropriate wells of 96-well plates using a Hewlett-Packard D300 Digital Dispenser. Cells were added to 96-well plates using a Multidrop Combi Reagent Dispenser. After 5 days of treatment, flow cytometric analysis was used to determine the number of cells that were alive, dead, or apoptotic. After 5 days of treatment, cells were incubated with annexin V to stain exposed phosphatidylserine, an apoptotic cell-surface marker, and the vital dye 7-AAD, which is excluded from cells with intact cell membranes, and analyzed by flow cytometry (Attune®, Thermo Fisher). Analysis was then performed to determine the number of live cells (annexin V and 7-AAD double negative staining cells) and the percentage of apoptotic cells (annexin V positive cells) for each condition, relative to the DMSO control treated, was calculated. All described values were normalized to DMSO-only treated cells. All proliferation and apoptosis induction curves were processed and graphed as percent of control using XLFit (IDBS, Alameda, CA) and GraphPad Prism 7.03 (GraphPad Software, La Jolla, CA). The live cell count for every concentration was normalized to the DMSO control (considered as 100%) in Microsoft Excel to generate the proliferation curves. […] Similarly, for apoptosis analysis, the percentage of drug-induced apoptosis was calculated for all doses by combining both “early” (annexin V positive and 7-AAD negative) and “late” apoptosis (annexin V and 7-AAD positive) values and subtracting background values (cell treated with vehicle control DMSO). The AUC values for apoptosis curves were calculated by performing area under curve analysis on GraphPad Prism 7.03. The area under the dose-response curve (AUC) was calculated since it integrates potency and efficacy of the drugs to represent apoptosis into a single parameter. The IC50 values for Compound 2 and pomalidomide in the flow cytometry assays are presented Table 9.
(§2) The apoptosis induction effect of Compound 2 was assessed using flow cytometry after 120 h of treatment and compared with pomalidomide treatment. […] Each data point represents 2 independent experiments with at least two samples in each experiment. (Table 10).

KMS-12-PE = assay: as above; format: cell-based, human; conditions: for IC50: Homo sapiens, read-out: Antiproliferative Activity (Flow Cytometry) IC50; for induced apoptosis AUC (area under the dose response curve): scale 0-10000
Description: as §1, §2

MM1-S = assay: as above; format: cell-based, human; conditions: for IC50: Homo sapiens, MM1-S, read-out: Antiproliferative Activity (Flow Cytometry) IC50; for induced apoptosis AUC (area under the dose response curve): MM1.S, 10000 = complete induction at all doses, 0 = none
Description: as §1, §2

OPM2 [1] = assay: as above; format: cell-based, human; conditions: for IC50: Homo sapiens, OPM-2, read-out: Antiproliferative Activity (Flow Cytometry) IC50; for induced apoptosis AUC (area under the dose response curve): scale 0-10000
Description: as §1, §2

NCI-H929 = assay: as above; format: cell-based, human; conditions: for IC50: Homo sapiens, read-out: Antiproliferative Activity (Flow Cytometry) IC50; for induced apoptosis AUC (area under the dose response curve): scale 0-10000
Description: as §1, §2

K562 cells = assay: Coculture of compound-treated IL-2-activated PBMCs with K562 cells; format: cell-based, human; conditions: for IC50: Homo sapiens, K562, IL-2-activated PBMCs treated 72 h, 4 h coculture, read-out: IC50 of compound-treated PBMCs for direct K562 cell killing
Description: Coculture Experiments with Peripheral Blood Mononuclear Cells and K562 Cells. Methods: Human Peripheral Blood Mononuclear Cell (PBMC) Preparation: PBMCs isolated from healthy donors were cultured in RPMI 1640 medium with 10% FBS at a density of 1×10^6 cells/mL.
Cell Culture: K562 cells were kept in log phase, and cell density and viability were monitored by trypan blue exclusion using the Vi-CELL® XR cell viability analyzer (Beckman Coulter, Brea, CA).
Assay Procedures: Freshly isolated human PBMCs were cultured with recombinant IL-2 at concentration of 20 units/mL for 72 h. Peripheral blood mononuclear cells were then spun down and re-suspended in fresh RPMI complete medium to 2×10^6 cells/mL. Cells were then treated with DMSO or compounds at the indicated concentrations and incubated for an additional 72 h. The PBMCs were then washed twice in fresh RPMI complete medium prior to coculture. K562 cells were re-suspended to a cell density of 1×10^6/mL and stained with 1 μM CellTrace CFSE according to manufacturer's instructions. The labeled K562 cells were then seeded into a 96-well round bottom plate at 1×10^5 cells/well. Peripheral blood mononuclear cells were then transferred into the same 96-well plate at a 1:15 ratio, in triplicate and incubated at 37° C. for 4 h. Specific target cell lysis by PBMC cells was measured using Annexin V-fluorescein isothiocyanate (FITC) and propidium iodide (PI) according to manufacturer's instructions and samples were run on the FACS Array scan. Non-labeled K562 cells, CellTrace CFSE-labeled K562 cells, and Annexin V-FITC- and PI labeled untreated K562 cells were included in each assay as controls.

OPM2 [2] = assay: PBMC and MM cell treatment assay (single culture vs co-culture); format: cell-based; conditions: Homo sapiens, OPM-2, OPM2, read-out: Immune-mediated Cell Killing IC50
Description: PBMC and MM Cell Treatment Assay Procedure. Ninety-six-well dishes were pre-coated with anti-CD3 antibody (OKT3, 3 μg/mL) and incubated at 4° C. overnight before the start of the experiment. Frozen PBMC donor cells were thawed at 37° C. for 2 minutes in RPMI medium with 10% FBS and cell counts and viability were measured on the Vi-CELL analyzer. Peripheral blood mononuclear cells were washed and diluted to 1×10^6 cells/mL and dispensed into the compound-treated plates in a total volume of 200 μL. Cells were incubated with compounds for 2 h before being transferred onto anti-CD3-coated plates and incubated for an additional 72 h. At the same time, MM cell lines (NCI-H929, H929-1051, OPM2, OPM2-P10) were diluted to a final concentration of 0.1×10^6 cells/mL and labeled with CellTrace CFSE according to manufacturer's instructions. Multiple myeloma cell lines were then dispensed into compound-treated plates at a total volume of 200 μL and incubated for 72 h. After 72 h, the PBMCs and MM cells were counted and transferred into a U-bottom 96-well plate at a final T:E ratio of 1:5. After 24 h coculture, specific target cell lysis by PBMC cells was measured using Annexin V-AF647 and 7-AAD according to manufacturer's instructions and samples were run on the Attune NxT Cytometer.
Because preincubation of immune cells with Compound 2 enhanced the targeting and lysing of MM cells, the effect of preincubation of MM cells with Compound 2 on their susceptibility to immune-mediated killing was also explored (FIG. 16A, FIG. 16B, FIG. 16C, and FIG. 16D, Table 12). Four MM cell lines and anti-CD3 antibody-activated PBMCs were separately preincubated with Compound 2, lenalidomide, or pomalidomide for 72 h. When anti-CD3 antibody-activated PBMCs and MM lines were both pretreated with Compound 2, lenalidomide, or pomalidomide, followed by co-culture, the effects on the PBMC-induced MM cell lysis were enhanced both in the potency and magnitude of the killing response. […] For the pomalidomide-resistant OPM2-P10 cell line, Compound 2 treatment of the MM cells enhanced the immune-mediated killing by ˜3000-fold (Table 12).

| Structure (SMILES) | IC50 (DF15) [nM] | induced apoptosis AUC (area under the dose response curve) (DF15) | IC50 (KMS-12-PE) [nM] | induced apoptosis AUC (area under the dose response curve) (KMS-12-PE) | IC50 (MM1-S) [nM] | induced apoptosis AUC (area under the dose response curve) (MM1-S) | IC50 (OPM2 [1]) [nM] | induced apoptosis AUC (area under the dose response curve) (OPM2 [1]) | IC50 (NCI-H929) [nM] | induced apoptosis AUC (area under the dose response curve) (NCI-H929) | potency relative to lenalidomide-treated PBMCs (K562 cells; 50% direct K562 cell killing) [fold] | potency relative to pomalidomide-treated PBMCs (K562 cells; 50% direct K562 cell killing) [fold] | IC50 (K562 cells) [nM] | IC50 (OPM2 [2]; Co-culture with PBMCs) [nM] | IC50 (OPM2 [2]; Single culture) [nM] |
| --- | --- | --- | --- | --- | --- | --- | --- | --- | --- | --- | --- | --- | --- | --- | --- |
| N#Cc1ccc(N2CCN(Cc3ccc(COc4cccc5c4CN([C@H]4CCC(=O)NC4=O)C5=O)cc3)CC2)c(F)c1 [Compound 2, (S)-4-(4-(4-(((2-(2,6-dioxopiperidin-3-yl)-1-oxoisoindolin-4-yl)oxy)methyl)benzyl)piperazin-1-yl)-3-fluorobenzonitrile] | 0.05 | 6002 | 0.09 | 2017 | 0.04 | 5701 | 0.05 | 5620 | 0.05 | 6089 | ~2600 | ~600 | 5900 | 0.0936 | 0.3 |
| Nc1cccc2c1C(=O)N(C1CCC(=O)NC1=O)C2=O (stereo not shown) [Pomalidomide, pomalidomide] | 41 | 3707 | 83.8 | 1069 | 33.7 | 3525 | 69.7 | 3298 | 63.1 | 2115 |  |  | 4 | 168 | 627 |
